Values joined by “and” are separate entries in the source; they are usually repeats but may differ in a detail not shown here. Equal values may be shown once. Read-outs that look alike come from different tables or passages of the source.
Assays:
Type in all cases: cell-based
CEM/dCK- = test: MMT or WST-1 assay at 72 hr; conditions: CEM/dCK- versus CCRF-CEM
[1] = 3H-Thymidine Incorporation Assay (24 hr drug, wash, another 48 hr; 72 hr assay); conditions: for Resistance Factor = Ratio of dCK- on Wild-type CCRF-CEM / Factor (Resistance Factor = Ratio of dCK- on Wild-type CCRF-CEM): ratio of IC50 CEM/dCK- to IC50 CCRF-CEM; for Factor (Resistance Factor = Ratio of dCK- on Wild-type CCRF-CEM): 24 h exposure
SF-268 = test: MTT assay at 72 hr; conditions: Homo sapiens, SF-268, read-out: IC50 (MTT at 72 hr) SF-268, 24 h exposure, single experiments
CEM cells = test: CellTiter 96 cell proliferation assay, 48 h exposure; conditions: for effect of es transport inhibitor NBMPR on resistance of CEM cells: presence of NBMPR
Protocol: The chemosensitivity of suspension cells lines (e.g., CEM or CEM-derivatives) is assessed using the CellTiter 96 ? proliferation assay. […] Chemosensitivity is expressed as 50% (ECso) of the dose response curve determined, e.g., using GraphPad Prism 2.01 (GraphPad Software, San Diego, Calif.). Adherent cell lines (e.g., DU145 or DU145^R) are seeded (˜10^5 cells) in triplicate dishes, 24 h before drug exposure. Growth inhibition is determined by trypsinization and counting cells electronically.

[2] = NCI-H460, read-out: IC50 (3H-TdR incorporation at 72 hr) H-460 24 h, H-460 human lung carcinoma, 24 hr exposure to drug, wash, another 48 hr
[3] = read-out: IC50 (3H-TdR incorporation at 72 hr) H-460 24 h, H-460 human lung carcinoma, 24 hr exposure to drug, wash, another 48 hr
[4] = read-out: IC50 (3H-TdR incorporation at 72 hr) MCF-7 24 h, MCF-7 human breast carcinoma, 24 hr exposure to drug, wash, another 48 hr
[5] = MCF7, read-out: IC50 (3H-TdR incorporation at 72 hr) MCF-7 24 h, MCF-7 human breast carcinoma, 24 hr exposure to drug, wash, another 48 hr
[6] = CCRF-CEM, read-out: IC50 (3H-TdR incorporation at 72 hr) CEM/dCK- 24 h, CEM/dCK- (CCRF-CEM deoxycytidine kinase-deficient), 24 hr exposure to drug, wash, another 48 hr
[7] = CCRF-CEM, read-out: IC50 (3H-TdR incorporation at 72 hr) CCRF-CEM 24 h, CCRF-CEM T-cell leukemia, 24 hr exposure to drug, wash, another 48 hr
[8] = SF-268, read-out: IC50 (3H-TdR incorporation at 72 hr) SF-268 24 h, SF-268 human central nervous system tumor, 24 hr exposure to drug, wash, another 48 hr

With `CCCCC(C)(C)C(=O)OC[C@H]1OC[C@@H](n2ccc(N)nc2=O)O1.Cl` [Compound 107, 2,2-DIMETHYLHEXANOIC ACID 4-(4-AMINO-2-OXO-2H-PYRI- MIDIN-1-YL)-1,3-DI- OXOLAN-2-YLMETHYL ESTER HYDROCHLORIDE] the “Resistance Factor” value (CEM/dCK-) was 2,042.
`Nc1ccn([C@@H]2CO[C@H](COC(=O)c3ccc(Cl)c(Cl)c3)O2)c(=O)n1` [Compound 187, 3,4-DICHLORO-BENZOIC ACID 4-(4-AMINO-2-OXO-2H-PYRI- MIDIN-1-YL)-[1,3]DI- OXOLAN-2-YL METHYL ESTER] gave an IC50 [1, 2] of 0.0014 µM, an IC50 ([1]; read-out: IC50 (3H-TdR incorporation at 72 hr) CCRF-CEM 24 h, CCRF-CEM T-cell leukemia, 24 hr exposure to drug, wash, another 48 hr) of 0.0016 µM and an IC50 [1, 3] of 0.0011 µM. It also gave an IC50 [1, 4] of 0.0051 µM.
Work on `Nc1ccn([C@@H]2CO[C@H](COC(=O)c3ccc(C(F)(F)F)cc3)O2)c(=O)n1` [Compound 189, 4-TRIFLUOROMETHYL-BENZOIC ACID 4-(4-A- MINO-2-OXO-2H-PYRI- MIDIN-1-YL)-[1,3]DI- OXOLAN-2-YL METHYL ESTER] yielded an IC50 [1, 5] of 0.0033 µM, an IC50 [1, 2] of 0.0012 µM and an IC50 [1, 3] of 0.00068 µM. It also gave an IC50 [1, 4] of 0.0037 µM.
Work on `Nc1ccn([C@@H]2CO[C@H](COC(=O)c3ccccc3F)O2)c(=O)n1` [Compound 190, 2-FLUORO-BENZOIC ACID 4-(4-AMINO-2-OXO-2H-PYRI- MIDIN-1-YL)-[1,3]DI- OXOLAN-2-YL METHYL ESTER] yielded an IC50 [1, 6] of 9.8 µM, an IC50 [1, 5] of 0.027 µM and an IC50 [1, 3] of 0.0039 µM. It also gave an IC50 [1, 4] of 0.016 µM.
`CC(C)(C)OC(=O)NCCCCCC(=O)Nc1ccn([C@@H]2CO[C@H](CO)O2)c(=O)n1` [Compound 193, {5-[1-(2-HYDROXYMETHYL-[1,3]DI- OXOLAN-4-YL)-2-OX- O-1,2-DIHYDRO-PYRI- MIDIN-4-YLCARBA- MOYL]-PENTYL}-CARBAMIC ACID TERT-BUTYL ESTER] showed a Resistance Factor = Ratio of dCK- on Wild-type CCRF-CEM [1] greater than 1700.
Work on `COc1ccc(C(OC)(OC)OC[C@H]2OC[C@@H](n3ccc(N)nc3=O)O2)cc1` [Compound 195, 4-AMINO-1-{2-[DI- METHOXY-(4-METHOXY-PHE- NYL)-METHOXYMETHYL]-[1,3]DI- OXOLAN-4-YL}-1#H!-PYRI- MIDIN-2-ONE] yielded a Resistance Factor = Ratio of dCK- on Wild-type CCRF-CEM [1] greater than 1560.
In the case of `CCOC(OCC)(OCC)OC[C@H]1OC[C@@H](n2ccc(N)nc2=O)O1` [Compound 199, 4-Amino-1-(2-tri-ethoxymethoxymethyl-[1,3]di-oxolan-4-yl)-1H-pyri-midin-2-one], the Resistance Factor = Ratio of dCK- on Wild-type CCRF-CEM [1] is reported as greater than 10600.
In the case of `CC(=O)Oc1ccc(COC(=O)Nc2ccn([C@@H]3CO[C@H](COC(=O)OCc4ccc(OC(C)=O)cc4)O3)c(=O)n2)cc1` [Compound 202, Acetic acid 4-(1-{2-[4-(Acetyloxy)benzyloxycarbonyloxymethyl]-[1,3]dioxolan-4-yl}2-oxo-1,2-dihydropyrimidin-4-ylcarbamoyloxymethyl)-phenyl ester], the Resistance Factor = Ratio of dCK- on Wild-type CCRF-CEM [1] is reported as greater than 1000.
For `Nc1ccn([C@@H]2CO[C@H](COC(=O)c3ccc([N+](=O)[O-])cc3)O2)c(=O)n1` [Compound 204, 4-NITRO-BENZOIC ACID 4-(4-A- MINO-2-OXO-2H-PYRI- MIDIN-1-YL)-[1,3]DI- OXOLAN-2-YL METHYL ESTER], the IC50 [1, 7] was 0.012 µM, the IC50 [1, 6] was 19 µM and the IC50 [1, 5] was 0.0086 µM. For the same compound, the IC50 [1, 2] was 0.015 µM, the IC50 [1, 8] was 0.025 µM and the “Resistance Factor = Ratio of dCK- on Wild-type CCRF-CEM” value [1] was 1 600.
In the case of `Nc1ccn([C@@H]2CO[C@H](COC(=O)c3ccccc3Cc3ccccc3)O2)c(=O)n1` [Compound 220, BIPHENYL-2-CARBOXYLIC ACID 4-(4-AMINO-2-OXO-2H-PYRI- MIDIN-1-YL)-[1,3]DI- OXOLAN-2-YL METHYL ESTER], the Resistance Factor = Ratio of dCK- on Wild-type CCRF-CEM [1] is reported as greater than 28600.
In the case of `Nc1ccn([C@@H]2CO[C@H](COC(=O)C3(c4ccccc4)CC3)O2)c(=O)n1` [Compound 223, 1-PHENYL-CYCLO- PROPANECARBOXYLIC ACID 4-(4-AMINO-2-OXO-2H-PYRI- MIDIN-1-YL)-[1,3]DI- OXOLAN-2-YL METHYL ESTER], the Resistance Factor = Ratio of dCK- on Wild-type CCRF-CEM [1] is reported as greater than 1610.
Compound `CC(C)(C(=O)OC[C@H]1OC[C@@H](n2ccc(N)nc2=O)O1)c1ccccc1[N+](=O)[O-].Cl` [Compound 224, 2-METHYL-2-(2-NITRO-PHE- NYL)-PROPIONIC ACID 4-(4-AMINO-2-OXO-2H-PYRI- MIDIN-1-YL)-[1,3]DI- OXOLAN-2-YLMETHYL ESTER HYDROCHLORIDE SALT] has an IC50 [1, 7] of 0.1 µM, an IC50 [1, 5] of 6.9 µM and an IC50 [1, 2] of 5.3 µM. For the same compound, the IC50 [1, 8] was 21 µM and the Resistance Factor = Ratio of dCK- on Wild-type CCRF-CEM [1] was greater than 1000.
In the case of `Cc1ccc(C)c(OCCCC(C)(C)C(=O)OC[C@H]2OC[C@@H](n3ccc(N)nc3=O)O2)c1` [Compound 237], the IC50 [1, 7] is reported as 0.0016 µM, the IC50 [1, 6] is reported as 18 µM and the IC50 [1, 5] is reported as no more than 0.0001 µM. The IC50 [1, 2] was 0.0026 µM, the IC50 [1, 8] was 0.088 µM and the “Resistance Factor = Ratio of dCK- on Wild-type CCRF-CEM” value [1] was 11,250. For the same compound, the IC50 (SF-268) was 3300 nM.
With `CCCCC[C@H]1CC[C@H](C(=O)OC[C@H]2OC[C@@H](n3ccc(N)nc3=O)O2)CC1` [Compound 240, 4-PENTYL-CYCLO- HEXANECARBOXYLIC ACID 4-(4-AMINO-2-OXO-2H-PYRI- MIDIN-1-YL)-[1,3]DI- OXOLAN-2-YL METHYL ESTER] the “Resistance Factor = Ratio of dCK- on Wild-type CCRF-CEM” value [1] was “≧25 000”.
Work on `CC(CCCCCCc1ccccc1)C(=O)OC[C@H]1OC[C@@H](n2ccc(N)nc2=O)O1` (stereo partly drawn) [Compound 245, 2-METHYL-8-PHENYL-OCTANOIC ACID 4-(4-AMINO-2-OXO-2H-PYRI- MIDIN-1-YL)-[1,3]DI- OXOLAN-2-YL METHYL ESTER] yielded a Resistance Factor = Ratio of dCK- on Wild-type CCRF-CEM [1] greater than 6800.
In the case of `CC(C)C[C@H](N)C(=O)Nc1ccn([C@@H]2CO[C@H](CO)O2)c(=O)n1` [Compound 257, 2-AMINO-4-METHYL-PENTANOIC ACID[1-(2-HYDROXY- METHYL-[1,3]DIOXO- LAN-4-yl)-2-OXO-1,2-DIHYDRO-PYRI- MIDIN-4-YL]-AMIDE], the “Resistance Factor” value (CEM/dCK-) is reported as greater than 19.
With `CC(C)C[C@H](NC(=O)[C@H](C)NC(=O)OC(C)(C)C)C(=O)Nc1ccn([C@@H]2CO[C@H](CO)O2)c(=O)n1` [Compound 263, (1-{1-[1-(2-HYDROXY- METHYL-[1,3]DIOXO- LAN-4-YL)-2-OXO-1,2-DI- HYDRO-PYRIMIDIN-4-YLCARBA- MOYL]-3-METHYL-BUTYL- CARBAMOYL}-ETHYL)-CARBAMIC ACID TERT-BUTYL ESTER] the “Resistance Factor” value (CEM/dCK-) was >5 and >7.
`CC(C)CCCCC(=O)Nc1ccn([C@@H]2CO[C@H](COC(=O)CCCCC(C)C)O2)c(=O)n1` [Compound 276, 6-METHYL-HEPTANOIC ACID 4-[4-(6-METHYL-HEPTANOYL- AMINO)-2-OXO-2H-PYRI- MIDIN-1-YL]-[1,3]DI- OXOLAN-2-YL METHYL ESTER] showed an IC50 ([1]; CCRF-CEM, read-out: IC50 in μM (3H-TdR incorporation at 72 hr) CCRF-CEM 24 h, CCRF-CEM T-cell leukemia, 24 h exposure to drug, wash, another 48 hr) of 0.028 µM, an IC50 ([1]; MCF7, read-out: IC50 in μM (3H-TdR incorporation at 72 hr) MCF-7 (72 h), MCF-7 human breast carcinoma, 72 h exposure) of 0.0017 µM and an IC50 ([1]; NCI-H460, read-out: IC50 in μM (3H-TdR incorporation at 72 hr) H-460 (72 h), H-460 human lung carcinoma, 72 h exposure) of 0.025 µM. For the same compound, the IC50 ([1]; SF-268, read-out: IC50 in μM (3H-TdR incorporation at 72 hr) SF-268 (72 h), SF-268 human central nervous system tumor, 72 h exposure) was 0.018 µM and the “Factor (Resistance Factor = Ratio of dCK- on Wild-type CCRF-CEM)” value [1] was 957.
With `CC(C)(C)C(=O)OC[C@H]1OC[C@@H](n2ccc(N)nc2=O)O1` [Compound 279, 2,2-DIMETHYL-PROPIONIC ACID 4-(4-AMINO-2-OXO-2H-PYRI- MIDIN-1-YL)-[1,3]DI- OXOLAN-2-YL METHYL ESTER] the “Factor (Resistance Factor = Ratio of dCK- on Wild-type CCRF-CEM)” value [1] was 1854 and >1205.
In the case of `CC(C)[C@H](N)C(=O)Nc1ccn([C@@H]2CO[C@H](CO)O2)c(=O)n1.O=C(O)C(F)(F)F` [Compound 280, 2-Amino-N-[1-(2-hydroxy-methyl-[1,3]dioxo-lan-4-yl)-2-oxo-1,2-di-hydro-pyrimidin-4-yl]-3-meth-yl-butyramide; trifluoroacetic acid salt], the “Factor (Resistance Factor = Ratio of dCK- on Wild-type CCRF-CEM)” value [1] is reported as greater than 53.
With `Nc1ccn([C@@H]2O[C@H](CO)[C@@H](O)[C@@H]2O)c(=O)n1` [Cytarabine, cytarabine] the “effect of es transport inhibitor NBMPR on resistance of CEM cells” value (CEM cells) was “significantly increased resistance”.
In the case of `Nc1ccn([C@@H]2O[C@H](CO)[C@@H](O)C2(F)F)c(=O)n1` [Gemcitabine, gemcitabine], the EC50 (CEM cells; Homo sapiens, CCRF-CEM, 48 h, read-out: Chemosensitivity, 50% of the dose response curve (EC50), CEM + NBMPR (100 nM), 48 h exposure, mean ± SD) is reported as 70 ± 18 nM and the “effect of es transport inhibitor NBMPR on resistance of CEM cells” value (CEM cells) is reported as “significantly increased resistance”.
